# Laboratory results: patent US11407738B2 (Achillion Pharmaceuticals, Inc., priority 2015, dated 2022)
# Biological target: Human Factor D (Homo sapiens (Human), UniProt P00746)
# Test: Human Factor D assay
# Assay type: biochemical
# Conditions: Table 3; Factor D inhibition, substrate Z-L-Lys-SBzl
# Method: Human Factor D (purified from human serum, Complement Technology, Inc.) at 80 nM final concentration is incubated with test compound at various concentrations for 5 min at room temperature in 50 mM Tris, 1M NaCl, pH 7.5. A synthetic substrate Z-L-Lys-SBzl and DTNB (Ellman's reagent) are added to final concentrations of 100 μM each. […] IC50 values are calculated by nonlinear regression of complement Factor D reaction rates as a function of test compound concentration.
# Chain of Human Factor D (P00746 26-253): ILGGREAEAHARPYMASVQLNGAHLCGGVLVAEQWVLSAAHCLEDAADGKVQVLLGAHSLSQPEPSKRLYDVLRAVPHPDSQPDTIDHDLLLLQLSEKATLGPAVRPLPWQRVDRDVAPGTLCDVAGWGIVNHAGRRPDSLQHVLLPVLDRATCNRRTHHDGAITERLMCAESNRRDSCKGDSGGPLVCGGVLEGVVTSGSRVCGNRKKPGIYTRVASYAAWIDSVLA
row,Structure (SMILES),IC50 [nM]
1,"Cc1ncc(-c2ccc3c(c2)c(C(N)=S)nn3CC(=O)N2C[C@H](F)C[C@H]2C(=O)Nc2cccc(Br)n2)cn1 [Compound 527, (2S,4R)—N-(6-Bromopyridin-2-yl)-1-(2-(3-carbamothioyl-5-(2-methylpyrimidin-5-yl)-1H-indazol-1-yl)acetyl)-4-fluoropyrrolidine-2-carboxamide]",< 1000
2,"CC(=O)c1nn(CC(=O)N2C[C@H](F)C[C@H]2C(=O)Nc2cccc(-c3ccc4c(c3)OC(F)(F)O4)c2F)c2ccc(-c3cnc(C)nc3)cc12 [Compound 528, (2S,4R)-1-(2-(3-Acetyl-5-(2-methylpyrimidin-5-yl)-1H-indazol-1-yl)acetyl)-N-(3-(2,2-difluorobenzo[d][1,3]dioxol-5-yl)-2-fluorophenyl)-4-fluoropyrrolidine-2-carboxamide]",< 1000
3,"CNS(=O)(=O)c1ccc(Cl)c(-c2cccc(NC(=O)[C@@H]3C[C@@H](F)CN3C(=O)Cn3nc(C(C)=O)c4cc(-c5cnc(C)nc5)ccc43)c2F)c1 [Compound 529, (2S,4R)-1-(2-(3-acetyl-5-(2-methylpyrimidin-5-yl)-1H-indazol-1-yl)acetyl)-N-(2′-chloro-2-fluoro-5′-(N-methylsulfamoyl)bi-phenyl-3-yl)-4-fluoropyrrolidine-2-carboxamide]",< 1000
4,"CC(=O)c1nn(CC(=O)N2C[C@H](F)C[C@H]2C(=O)Nc2cccc(-c3ccccc3Cl)c2F)c2ccc(N3CCn4c(nnc4C(F)(F)F)C3)cc12 [Compound 531, (2S,4R)-1-(2-(3-acetyl-5-(3-(trifluoromethyl)-5,6-dihydro-[1,2,4]triazolo[4,3-a]pyrazin-7(8H)-yl)-1H-indazol-1-yl)acetyl)-N-(2′-chloro-2-fluorobiphenyl-3-yl)-4-fluoropyrrolidine-2-carboxamide]",< 1000

# Same assay, conditions: Table 4; Factor D inhibition, substrate Z-L-Lys-SBzl
row,Structure (SMILES),IC50 [nM]
1,"CC(=O)c1nn(CC(=O)N2C[C@H](F)C[C@H]2C(=O)NC2CCN(C(=O)c3cc(Cl)c[nH]3)CC2)c2ccc(-c3cnc(C)nc3)cc12 [Compound 532, (2S,4R)-1-(2-(3-acetyl-5-(2-methylpyrimidin-5-yl)-1H-indazol-1-yl)acetyl)-N-(1-(4-chloro-1H-pyrrole-2-carbonyl)piperidin-4-yl)-4-fluoropyrrolidine-2-carboxamide]",< 1000
2,"COCCN(C)CCN1CC(NC(=O)[C@@H]2C[C@@H](F)CN2C(=O)Cn2nc(C(C)=O)c3cc(-c4cnc(C)nc4)ccc32)CC1=O (stereo partly drawn) [Compound 533, (2S,4R)-1-(2-(3-acetyl-5-(2-methylpyrimidin-5-yl)-1H-indazol-1-yl)acetyl)-4-fluoro-N-(1-(2-((2-methoxyethyl)(meth-yl)amino)ethyl)-5-oxopyrrolidine-3-yl)pyrrolidine-2-carboxamide]",> 10000
3,"C=CCCCCCCCCCNc1ncc(-c2ccc3c(c2)c(C(C)=O)nn3CC(=O)O)cn1 [Compound 535, 2-(3-acetyl-5-(2-(undec-10-en-1-ylamino)pyrimidin-5-yl)-1H-indazol-1-yl)acetic acid]",> 10000
4,"CC(=O)c1nn(CC(=O)NCc2ccccc2CC(=O)O)c2ccc(-c3cnc(C)nc3)cc12 [Compound 536, 2-(2-((2-(3-acetyl-5-(2-methylpyrimidin-5-yl)-1H-indazol-1-yl)acetamido)meth-yl)phenyl)acetic acid]",> 10000
5,"COC(=O)Cc1ccccc1CNC(=O)Cn1nc(C(C)=O)c2cc(-c3cnc(C)nc3)ccc21 [Compound 537, methyl 2-(2-((2-(3-acetyl-5-(2-methylpyrimidin-5-yl)-1H-indazol-1-yl)acetamido)meth-yl)phenyl)acetate]",> 10000
6,"CC(=O)c1nn(CC(=O)N2C[C@H](F)C[C@H]2C(=O)Nc2cccc(-c3cc(F)ccc3S(C)(=O)=O)c2F)c2ccc(-c3cnc(C)nc3)cc12 [Compound 539, (2S,4R)-1-(2-(3-acetyl-5-(2-methylpyrimidin-5-yl)-1H-indazol-1-yl)acetyl)-N-(2,5′-difluoro-2′-(methylsulfonyl)-[1,1′-biphenyl]-3-yl)-4-fluoropyrrolidine-2-carboxamide]",< 1000
7,"CC(=O)c1nn(CC(=O)N2C[C@H](F)C[C@H]2[C@H](O)Cc2cccc(Br)n2)c2ccc(-c3cnc(C)nc3)cc12 [Compound 540, 2-(3-Acetyl-5-(2-methylpyrimidin-5-yl)-1H-indazol-1-yl)-1-((2S,4R)-2-((R)-2-(6-bromopyridin-2-yl)-1-hydroxyethyl)-4-fluoropyrrolidin-1-yl)ethanone]",1000 to 10000
8,CC(=O)c1nn2c3ccc(cc13)-c1cnc(nc1)NCCCCCCCCCCCc1cc(Cl)c(F)c(c1)CNC(=O)[C@@H]1C[C@@H](F)CN1C(=O)C2 [Compound 541],> 10000
9,"Cc1ncc(-c2ccc3c(c2)c(C(=N)N)nn3CC(=O)N2C[C@H](F)C[C@H]2C(=O)Nc2cccc(-c3ccccc3Cl)c2F)cn1 [Compound 542, (2S,4R)-1-(2-(3-Carbamimidoyl-5-(2-methylpyrimidin-5-yl)-1H-indazol-1-yl)acetyl)-N-(2′-chloro-2-fluoro-[1,1′-biphenyl]-3-yl)-4-fluoropyrrolidine-2-carboxamide]",< 1000
10,"CC(=O)c1nn(CC(=O)N2CCC[C@@H](CNC(=O)c3cccc(Br)n3)C2)c2ccc(-c3cnc(C)nc3)cc12 [Compound 543, (S)—N-((1-(2-(3-Acetyl-5-(2-methylpyrimidin-5-yl)-1H-indazol-1-yl)acetyl)piperidin-3-yl)methyl)-6-bromopicolinamide]",> 10000
11,"CC(=O)c1nn(CC(=O)N2C[C@@](F)(CN=[N+]=[N-])C[C@H]2C(=O)Nc2cccc(Br)n2)c2ccc(-c3cnc(C)nc3)cc12 [Compound 547, (2S,4R)-1-(2-(3-Acetyl-5-(2-methylpyrimidin-5-yl)-1H-indazol-1-yl)acetyl)-4-(azidomethyl)-N-(6-bromopyridin-2-yl)-4-fluoropyrrolidine-2-carboxamide]",< 1000
12,"CC(=O)c1nn(CC(=O)N2CCC[C@@H](CNC(=O)c3ncc(Br)s3)C2)c2ccc(-c3cnc(C)nc3)cc12 [Compound 548, (S)—N-((1-(2-(3-Acetyl-5-(2-methylpyrimidin-5-yl)-1H-indazol-1-yl)acetyl)piperidin-3-yl)methyl)-5-bromothiazole-2-carboxamide]",> 10000
13,"Cc1ncc(-c2ccc3c(c2)c([C@@H](C)O)nn3CC(=O)N2C[C@H](F)C[C@H]2C(=O)O)cn1 [Compound 550, (2S,4R)-4-fluoro-1-(2-(3-((R)-1-hydroxyethyl)-5-(2-methylpyrimidin-5-yl)-1H-indazol-1-yl)acetyl)pyrrolidine-2-carboxylic acid]",> 10000
14,"CC(=O)c1nn(CC(=O)N2C[C@H](F)C[C@H]2C(=O)Nc2nc(Br)ccc2C)c2ccc(-c3cnc(N)nc3)cc12 [Compound 553, (2S,4R)-1-(2-(3-acetyl-5-(2-aminopyrimidin-5-yl)-1H-indazol-1-yl)acetyl)-N-(6-bromo-3-methylpyridin-2-yl)-4-fluoropyrrolidine-2-carboxamide]",< 1000
15,"COc1ncc(-c2ccc3c(c2)c(C(C)=O)nn3CC(=O)N2C[C@H](F)C[C@H]2C(=O)Nc2nc(Br)ccc2C)cn1 [Compound 554, (2S,4R)-1-(2-(3-acetyl-5-(2-methoxypyrimidin-5-yl)-1H-indazol-1-yl)acetyl)-N-(6-bromo-3-methylpyridin-2-yl)-4-fluoropyrrolidine-2-carboxamide]",< 1000
16,"C/C(=N\O)c1nn(CC(=O)N2C[C@H](F)C[C@H]2C(=O)Nc2cccc(Br)n2)c2ccc(-c3cnc(C)nc3)cc12 [Compound 555, (2S,4R)—N-(6-Bromopyridin-2-yl)-4-fluoro-1-(2-(3-((E)-1-(hydroxyimino)ethyl)-5-(2-methylpyrimidin-5-yl)-1H-indazol-1-yl)acetyl)pyrrolidine-2-carboxamide]",< 1000
17,"CC(=O)c1nn(CC(=O)N2CCC[C@H](CNC(=O)c3cccc(Br)n3)C2)c2ccc(-c3cnc(C)nc3)cc12 [Compound 556, (R)—N-((1-(2-(3-Acetyl-5-(2-methylpyrimidin-5-yl)-1H-indazol-1-yl)acetyl)piperidin-3-yl)methyl)-6-bromopicolinamide]",> 10000
18,"Cc1cccc(C[C@H](O)[C@@H]2C[C@@H](F)CN2C(=O)Cn2cc(C(N)=O)c3cc(-c4cnc(C)nc4)ccc32)n1 [Compound 559, 1-(2-((2S,4R)-4-Fluoro-2-((S)-1-hydroxy-2-(6-methylpyridin-2-yl)ethyl)pyrrolidin-1-yl)-2-oxoethyl)-5-(2-methylpyrimidin-5-yl)-1H-indole-3-carboxamide]",> 10000
19,"CC(=O)c1nn(CC(=O)N2C[C@H](F)C[C@H]2C(=O)Nc2cccc(-c3ccc4c(c3Cl)NCCN4)c2F)c2ccc(-c3cnc(C)nc3)cc12 [Compound 560, (2S,4R)-1-(2-(3-Acetyl-5-(2-methylpyrimidin-5-yl)-1H-indazol-1-yl)acetyl)-N-(3-(5-chloro-1,2,3,4-tetrahydroquinoxalin-6-yl)-2-fluorophenyl)-4-fluoropyrrolidine-2-carboxamide]",< 1000
20,"Cc1cccc(C[C@@H](O)[C@H]2C[C@@H](F)CN2C(=O)Cn2cc(C(N)=O)c3cc(-c4cnc(C)nc4)ccc32)n1 [Compound 561, 1-(2-((2R,4R)-4-Fluoro-2-((R)-1-hydroxy-2-(6-methylpyridin-2-yl)ethyl)pyrrolidin-1-yl)-2-oxoethyl)-5-(2-methylpyrimidin-5-yl)-1H-indole-3-carboxamide]",> 10000
21,"CC(=O)c1nn(CC(=O)N2C[C@H](F)C[C@H]2CNC(=O)c2cccc(Cl)c2F)c2ccc(-c3cnc(C)nc3)cc12 [Compound 562, N-(((2S,4R)-1-(2-(3-acetyl-5-(2-methylpyrimidin-5-yl)-1H-indazol-1-yl)acetyl)-4-fluoropyrrolidin-2-yl)methyl)-3-chloro-2-fluorobenzamide]",> 10000
22,"CC(=O)c1nn(CC(=O)N2C[C@H](F)C[C@H]2CNS(=O)(=O)c2cccc(Cl)c2F)c2ccc(-c3cnc(C)nc3)cc12 [Compound 563, N-(((2S,4R)-1-(2-(3-acetyl-5-(2-methylpyrimidin-5-yl)-1H-indazol-1-yl)acetyl)-4-fluoropyrrolidin-2-yl)methyl)-3-chloro-2-fluorobenzene-sulfonamide]",< 1000
